Experiments:
Format in all cases: in vivo
[1] = system: Balb/c mice; assay: Open field test (exploratory locomotor activity); conditions: 0.1 or 5 mg/kg oral, subchronic; for time spent in zones 2 and 3: in comparison to control mice, FIG. 1F; for locomotor activity (distance moved, velocity, strong mobility and immobility): recorded over 20 minutes, in comparison to the control mice, FIG. 1A-1D
Protocol: This method is one of the most popular in evaluation of animals' behaviour. It tests both motility parameters and anxiety (Prut et al). An individual mouse is placed in a novel plexiglass arena of 50×50 cm the floor of which is divided into 3 digital zones. The outer peripheral zone 1, the medial zone 2 and the most central zone 3. The animal behaviour in the open field is recorded by videotaping for 20 min and analyzed subsequently digitally using Noldus software for animal behaviour. The measurements include general motility: distance moved, velocity and strong mobility, as well as anxiety parameters including frequency of visits to the central area, time spent in the inner field, and number of rearing events in the centre. The more the animal stays and performs in the centre, it is less anxious.
40, 9 week old naïve male Balb/c mice were divided in 5 groups (8 mice in each group) and treated daily (0 min, p.o.) for two weeks, as follows: • 1. Control—0.5% DMSO 0.3 ml/mouse, po (3 ml/10 mice) (15 μl DMSO+2994 μl DDW), n=8. • 2. Diclofenac 10 mg/Kg=0.3 mg/0.3 ml/mouse, i.p. (3 ml/10 mice), n=8 • 3. 135S 0.5 mg/Kg=0.015 mg/0.3 ml/mouse, po (3 ml/10 mice) (135S 0.15 mg (Stock 50 mg/1 ml DMSO) 3 μl+2997 μl DDW), n=8 • 4. 135S 2.5 mg/kg=0.075 mg/0.3 ml/mouse, po (3 ml/10 mice) ([…] 0.75 mg (Stock 50 mg/1 ml DMSO) 15 μl+2985 μl DDW), n=8 • 5. 135S 0.1 mg/Kg=0.003 mg/0.3 ml/mouse, po (3 ml/10 mice) (135S […] (Stock 50 mg/1 ml DMSO) 0.6 μl+2999.4 μl DDW), n=8
Fifteen days after treatment, the five groups of mice listed above were subjected to the open field test for […]. The activity of the mice was assessed by an EthoVision video track system (Noldus Ltd.) A centre zone (“zone 3”; approximately 16% of the total area), a border area (“zone 1”; an 8 cm wide border around the edge of the arena) and an intermediate zone (“zone 2”; the remaining area) were defined. Quantitative parameters, such as the distance travelled and average speed, were recorded for the centre zone and the entire arena.
An Open Field test measures activity in a novel environment and can be used to assess a combination of locomotor activity, exploratory drive, neophobia, agoraphobia and other aspects of anxiety or fear in mice, as well as motor function. Treatment using a 0.1 mg/kg or 5 mg/kg dose of 135S or 175S compound was compared to the effect of treatment with a control substance (DMSO) or Diclofenac. The mice were placed in the centre of the arena and their activity and behaviour was recorded over a period of 20 minutes in respect of the distance moved (cm), velocity (cm/s), strong mobility and immobility. The ratio of total duration between the inner zones 2 and 3 in comparison to the outer zone 1 was recorded. The total duration in the inner zones 2 and 3 was also determined.

[2] = system: Balb/c mice; assay: Elevated plus maze; conditions: 0.1, 0.5, 2.5 mg/kg p.o., test on day 8, 15 minutes, in comparison to control mice
Protocol: This model uses the natural fear of rodents to avoid open and elevated places. The apparatus consists of a plus-maze with two enclosed and two opposite open arms, elevated above the floor. […] This is one of the most widely used models to study effects of anxiety-like behaviour. The maze consisted of two opposing open arms (40×10 cm) and two opposing closed arms (40×10 cm, with 40 cm walls) on a platform 50 cm above the ground.
The groups of mice were treated as in Example 2 and an elevated plus maze test was carried out on day 8. This test was used as a further test of the anxiolytic effect of the drugs of the invention.
The mice were placed in the centre of the maze facing an open arm and were allowed to freely explore the maze for 15 minutes. During this time, their behaviour was observed.

[3] = system: Balb/c mice; assay: Marble burying test; conditions: 0.1, 0.5 and 2.5 mg/kg p.o., test on day 15, 20 glass marbles, 20 minutes; against control mice; FIG. 4
Protocol: The marble burying test is a useful model of neophobia, anxiety and obsessive-compulsive behaviour. It has also been proposed that the test may have predictive validity for the screening of novel antidepressants, anxiolytics and antipsychotics. Mice can be expected to bury roughly 75% of the marbles in a 30 min period, although it varies with strain and gender. In this study, male Balb/c mice were used.
The groups of mice were treated as in Example 2 and a marble burying test was carried out on day 15. The mice were placed individually into a cage containing 20 glass marbles and exposed for 20 minutes. The number of marbles buried by the mice was monitored. […] This test provides further evidence of the anxiolytic properties of this compound, in particular with respect to treatment of obsessive compulsive disorder (OCD).

[4] = system: Balb/c mice; assay: Forced swim test
From the text: This is one of the most widely used tools for screening antidepressant activity preclinically in an acute test and was first described by Porsolt et al (1977). The test is based on the observation that rats and mice develop an immobile posture when placed in an inescapable cylinder of water. This behavior is considered to be a behavioural despair as opposed to an active form of coping with stressful conditions. An antidepressant will reduce immobility and increase motivated behaviour of the rodent to escape from the despaired conditions. This is evidenced by increase in time of swimming, distance moved, velocity and attempts to climb the walls (strong mobility). FST is considered a good screen tool with good reliability and predictive validity.
The test in male mice (Balb/c Harlan IL) was conducted after 4 days of drug administration (90 min post last drug administration). Round glass cylinders 18 cm diameter and 20 cm depth were used. Water temperature was 24-28° C. Motivated behaviour was defined by immobility, swimming and strong mobility. Immobility in the animals was defined by activity lower than 10% movement of the centre of gravity of the animal. Swimming was defined by the distance and the velocity of the animal, and climbing was related to strong mobility (movement of centre of gravity more than 30%). Animals were dropped to the cylinder for 6 min and scoring was performed in the last 4 min after 2 min of adaptation. All results were analyzed by the Noldus (Holland) system including a camera and software for animal behaviour analyses.
Mice were treated with compound 135S at three different concentrations (0.1 mg/kg, 0.5 mg/kg and 2.5 mg/kg), or with the anti-depressant Fluoxetine (10 mg/kg) administered orally in a daily dose for 14 days. The forced swim test was performed on […].
In a first trial, the mice were placed in a tank of water, from which they could not escape. The mobility and immobility of the mice was monitored. In a second trial, the same mice were placed back into the tank. The mobility and immobility of the mice was again monitored.

[5] = 0.1, 0.5 and 2.5 mg/kg oral, in comparison to control mice, FIG. 2A-2C

Compound	time spent in zones 2 and 3 [1]	locomotor activity (distance moved, velocity, strong mobility and immobility) [1]	exploration of the maze ([2]; FIG. 3A-3D)	time spent within the open arms ([2]; FIG. 3B)	number of marbles buried [3]	immobility [4, 5]	mobility [4, 5]	anti-depressant effect compared with Fluoxetine ([4]; 135S 0.1, 0.5 and 2.5 mg/kg against Fluoxetine 10 mg/kg, oral)
CC(O)COCC(Cc1ccc(O)cc1)NC(=O)CCc1ccccc1 (stereo not shown) [Compound 135S]	significant increase	did not show a significant effect	increased exploration of the maze	increased time spent within the open arms	significantly less marbles than control mice	decrease	increase	greater than that resulting from treatment of mice with the common anti-depressant drug Fluoxetine
O=C(CCc1ccccc1)NC(COCCO)Cc1ccc(O)cc1 (stereo not shown) [Compound 175S]	significant increase	did not show a significant effect	–	–	–	–	–	–

Reference: patent publication US9133103B2, “N-substituted benzenepropanamide and benzenepropenamide for use in the prevention or the treatment of affective disorders” (Novaremed, Ltd., priority 2011, dated 2015)
